# Laboratory results taken from US9096591B2, “Tetracyclic compounds” (Medivation Technologies, Inc., priority 2007, dated 2015).
# How the values were obtained:
# [1] = molecular target: T1, human recombinant histamine H2 receptor (Homo sapiens, UniProt P25021); assay: Histamine H2 radioligand binding ([125I]Aminopotentidine); conditions: read-out: Inhibition of ligand binding, Hist. H2
# T1 construct: expressed in transfected cells; host or cells: CHO-K1 cells
# Outline: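 Test compounds were assessed for their ability to displace radioligand from the human recombinant histamine H2 receptor. Non-specific binding was determined in the presence of 3 μM Tiotidine, and results were expressed as percent inhibition of specific binding, with 1% DMSO serving as the vehicle.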
# [2] = molecular target: T2, human recombinant adrenergic α1D receptor (Homo sapiens, UniProt P25100); assay: Adrenergic α1D radioligand binding ([3H]Prozosin); design: Inhibition of ligand binding, Adren. alpha1D: concentration or dose not given beside the values; conditions: percent inhibition of specific binding
# T2 construct: expressed in transfected cells; host or cells: HEK-293 cells
# T2 sequence (P25100 1-572): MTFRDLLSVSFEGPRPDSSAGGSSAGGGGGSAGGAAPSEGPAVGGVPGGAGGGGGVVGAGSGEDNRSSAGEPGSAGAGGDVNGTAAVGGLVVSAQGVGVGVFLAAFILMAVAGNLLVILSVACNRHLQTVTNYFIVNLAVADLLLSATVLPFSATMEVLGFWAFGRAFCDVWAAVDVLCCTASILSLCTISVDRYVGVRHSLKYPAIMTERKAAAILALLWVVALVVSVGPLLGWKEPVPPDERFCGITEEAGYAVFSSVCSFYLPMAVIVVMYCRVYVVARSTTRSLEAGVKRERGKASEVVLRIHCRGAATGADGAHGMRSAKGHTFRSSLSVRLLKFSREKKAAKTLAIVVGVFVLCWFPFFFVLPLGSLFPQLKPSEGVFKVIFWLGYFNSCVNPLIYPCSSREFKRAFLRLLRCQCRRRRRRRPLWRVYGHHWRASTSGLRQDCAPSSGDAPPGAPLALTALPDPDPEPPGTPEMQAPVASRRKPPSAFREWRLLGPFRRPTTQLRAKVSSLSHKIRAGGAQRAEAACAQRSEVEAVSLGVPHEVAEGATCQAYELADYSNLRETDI
# Protocol: Compounds of invention were incubated with 0.6 nM [^3H]Prozosin for 60 minutes at 25° C. Non-specific binding was estimated in the presence of 10 μM phentolamine. Receptor proteins were filtered and washed, the filters were then counted to determine [^3H]Prozosin specifically bound. […] Biochemical assay results are presented as the percent inhibition of specific binding in Table 6.
# [3] = molecular target: T3, human recombinant serotonin (5-Hydroxytryptamine) 5-HT2A receptor (Homo sapiens, UniProt P28223); assay: Serotonin 5-HT2A radioligand binding ([3H]Ketanserin); design: Inhibition of ligand binding, Ser. 5-HT2A: concentration or dose not given beside the values; conditions: percent inhibition of specific binding
# T3 construct: expressed in transfected cells; host or cells: CHO-K1 cells
# Protocol: Compounds of the invention were incubated with 0.5 nM [^3H]Ketanserin for 60 minutes at 25° C. Non-specific binding was estimated in the presence of 1 μM Mianserin. Receptor proteins were filtered and washed, the filters were then counted to determine [^3H]Ketanserin specifically bound. […] Biochemical assay results are presented as the percent inhibition of specific binding in Table 6.
# [4] = test system: synaptosomes of cortex of rat brain; assay: Glutamate-induced 45Ca2+ uptake into synaptosomes; format: biochemical, Wistar rats; conditions: for % Ca of control (control-100%), glutamate-induced 45Ca2+ uptake into synaptosomes: rat cortex synaptosomes
# Outline: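 Cortical synaptosomes (P2 fraction) from 9-10-day-old Wistar rats, ~1.5-2 mg/ml protein in HEPES-buffered saline with glucose, pH 7.4, stimulated 5 min with 200 μM glutamate at 37° C. 45Ca2+ uptake measured by filtration and scintillation counting; specific uptake with compound expressed as percentage of glutamate-induced uptake, each corrected for unstimulated uptake.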
# T1 sequence (P25021 whole entry): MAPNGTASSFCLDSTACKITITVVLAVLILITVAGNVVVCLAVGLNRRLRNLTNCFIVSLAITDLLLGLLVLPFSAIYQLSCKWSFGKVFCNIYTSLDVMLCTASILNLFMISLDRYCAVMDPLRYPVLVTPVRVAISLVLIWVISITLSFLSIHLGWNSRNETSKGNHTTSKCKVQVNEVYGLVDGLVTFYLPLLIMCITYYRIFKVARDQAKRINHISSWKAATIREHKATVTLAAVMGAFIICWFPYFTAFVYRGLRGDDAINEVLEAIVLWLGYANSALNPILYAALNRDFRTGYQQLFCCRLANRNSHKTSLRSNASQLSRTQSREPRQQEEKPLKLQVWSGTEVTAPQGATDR
# T3 sequence (P28223 whole entry): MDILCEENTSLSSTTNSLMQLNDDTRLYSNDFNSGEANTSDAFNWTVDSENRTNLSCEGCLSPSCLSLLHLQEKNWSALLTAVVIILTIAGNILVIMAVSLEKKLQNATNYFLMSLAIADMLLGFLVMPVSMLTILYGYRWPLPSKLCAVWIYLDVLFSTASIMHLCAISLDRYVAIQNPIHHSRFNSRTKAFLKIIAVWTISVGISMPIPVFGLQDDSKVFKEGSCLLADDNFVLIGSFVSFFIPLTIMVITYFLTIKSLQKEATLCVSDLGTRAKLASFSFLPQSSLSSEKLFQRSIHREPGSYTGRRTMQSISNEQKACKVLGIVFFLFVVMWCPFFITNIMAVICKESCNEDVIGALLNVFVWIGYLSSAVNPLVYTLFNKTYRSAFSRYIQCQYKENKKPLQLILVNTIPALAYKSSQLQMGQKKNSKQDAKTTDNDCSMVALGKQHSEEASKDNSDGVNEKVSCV
structure (smiles),measurement,setting,value
CN1CCc2c(c3cc(Cl)ccc3n2CCc2ccc(C(F)(F)F)nc2)C1 [Compound 250],inhibition at 1 µM,[1],54%
same,"Inhibition of ligand binding, Adren. alpha1D",[2],93%
same,"Inhibition of ligand binding, Ser. 5-HT2A",[3],101%
CN1CCc2c(c3cc(Cl)ccc3n2CCc2nc(-c3ccccc3)cs2)C1 [Compound C1-8],inhibition of glutamate-induced 45Ca2+ uptake into synaptosomes,[4]; 1-5 μM,~14%
same,"glutamate-induced 45Ca2+ uptake into synaptosomes of rat cortex, % of control",[4]; 50-100 μM,122%
same,"% Ca of control (control-100%), glutamate-induced 45Ca2+ uptake into synaptosomes",[4]; compound 0.1 μM,99.2 ± 1.4%
same,"% Ca of control (control-100%), glutamate-induced 45Ca2+ uptake into synaptosomes",[4]; compound 0.5 μM,96.7 ± 2.4%
same,"% Ca of control (control-100%), glutamate-induced 45Ca2+ uptake into synaptosomes",[4]; compound 1 μM,86.1 ± 0.1%
same,"% Ca of control (control-100%), glutamate-induced 45Ca2+ uptake into synaptosomes",[4]; compound 5 μM,87.7 ± 2.7%
same,"% Ca of control (control-100%), glutamate-induced 45Ca2+ uptake into synaptosomes",[4]; compound 10 μM,99.3 ± 3.0%
same,"% Ca of control (control-100%), glutamate-induced 45Ca2+ uptake into synaptosomes",[4]; compound 50 μM,122.4 ± 1.6%
same,"% Ca of control (control-100%), glutamate-induced 45Ca2+ uptake into synaptosomes",[4]; compound 100 μM,121.7 ± 13.9%
"Cc1ccc2c(c1)c1c(n2CCc2ccc(C)nc2)CCN(C)C1 [Dimebon, dimebon, reference compound]",inhibition at 1 µM,[1],83%
same,"Inhibition of ligand binding, Adren. alpha1D",[2],91%
same,"Inhibition of ligand binding, Ser. 5-HT2A",[3],82%
same,concentration at which glutamate-induced 45Ca2+ uptake into synaptosomes was inhibited,[4],0.25 to 10 µM
same,inhibition of glutamate-induced 45Ca2+ uptake into synaptosomes,[4]; 1 μM (maximal inhibition),40%
same,"glutamate-induced 45Ca2+ uptake into synaptosomes of rat cortex, % Ca of control (control-100%)",[4]; C 0.1 μM,120 ± 3.3%
same,"glutamate-induced 45Ca2+ uptake into synaptosomes of rat cortex, % Ca of control (control-100%)","[4]; C 0.1 μM, listed as dimebon",120.4%
same,"glutamate-induced 45Ca2+ uptake into synaptosomes of rat cortex, % Ca of control (control-100%)",[4]; C 0.5 μM,64.4 ± 12.4%
same,"glutamate-induced 45Ca2+ uptake into synaptosomes of rat cortex, % Ca of control (control-100%)",[4]; C 1.0 μM,61.3 ± 8.1%
same,"glutamate-induced 45Ca2+ uptake into synaptosomes of rat cortex, % Ca of control (control-100%)",[4]; C 5.0 μM,83.2 ± 4.1%
same,"glutamate-induced 45Ca2+ uptake into synaptosomes of rat cortex, % Ca of control (control-100%)",[4]; C 10 μM,89.3 ± 1.2%
same,"glutamate-induced 45Ca2+ uptake into synaptosomes of rat cortex, % Ca of control (control-100%)",[4]; C 25 μM,97.2 ± 8.5%
same,"glutamate-induced 45Ca2+ uptake into synaptosomes of rat cortex, % Ca of control (control-100%)",[4]; C 50 μM,98.7 ± 8.8%
same,"glutamate-induced 45Ca2+ uptake into synaptosomes of rat cortex, % Ca of control (control-100%)",[4]; C 100 μM,132 ± 2.9%
same,"glutamate-induced 45Ca2+ uptake into synaptosomes of rat cortex, % Ca of control (control-100%)","[4]; C 100 μM, listed as dimebon",132%
